Ends that are not written are not given here.

For the series, the system named is B6SJL mice. To be noted: intravenous injection of pTG11236/peptide complexes, dead mice per group of five. How it is done:
Indicated amounts of the luciferase expression plasmid pTG11236 were mixed with ppTG1 and /or pcTG90/DOPE. […] Muscles, tumors or organs were recovered at the indicated points of time, macerated and tested for luciferase activity with the luciferase assay kit from Promega.
After 20 min incubation at room temperature, the complexes were intravenously injected into B6SJL mice. Mice were sacrificed at day 1. The lungs were recovered, total protein was extracted and luciferase activity was analysed.
The potential of gene transfer with mono-component peptide vectors was investigated in vivo. […] Five mice per group were intravenously injected, the animals were sacrificed at day 1 after injection. Lungs were tested for luciferase activity.

As to GLFRALLRLLRSLWRLLLRA [ppTG20], the toxicity result is “less toxic than ppTG1”.

The record behind these values is patent publication EP1161957A1, “Complex for transferring an anionic substance of interest into a cell” (TRANSGENE S.A., priority 2000, dated 2001).
